Assay results as given in patent US9273057B2 (Bristol-Myers Squibb Company, priority 2012, dated 2016).
Where a name gives a salt, the structure may show the parent alone.

Each compound was assayed against CK2A1 (CK2α/β) (Homo sapiens, UniProt P68400) (assay: CK2 kinase assay, CK2A1 (CK2α/β)). Settings: Table A; read-out: CK2A1 (CK2α/β) (IC50).
Format: biochemical

CK2A1 (CK2α/β), sequence (P68400 whole entry, species assumed): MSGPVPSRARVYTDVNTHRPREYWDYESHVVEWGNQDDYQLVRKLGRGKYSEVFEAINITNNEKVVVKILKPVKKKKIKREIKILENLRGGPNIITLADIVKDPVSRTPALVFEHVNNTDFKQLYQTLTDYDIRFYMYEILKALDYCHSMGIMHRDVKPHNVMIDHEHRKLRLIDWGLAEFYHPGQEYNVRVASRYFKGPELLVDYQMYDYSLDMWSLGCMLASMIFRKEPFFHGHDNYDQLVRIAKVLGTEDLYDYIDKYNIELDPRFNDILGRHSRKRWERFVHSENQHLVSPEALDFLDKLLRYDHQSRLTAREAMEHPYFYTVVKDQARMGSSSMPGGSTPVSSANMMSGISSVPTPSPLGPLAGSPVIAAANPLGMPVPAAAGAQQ
CK2A1 (CK2α/β), sequence (P67870 whole entry partner, species assumed): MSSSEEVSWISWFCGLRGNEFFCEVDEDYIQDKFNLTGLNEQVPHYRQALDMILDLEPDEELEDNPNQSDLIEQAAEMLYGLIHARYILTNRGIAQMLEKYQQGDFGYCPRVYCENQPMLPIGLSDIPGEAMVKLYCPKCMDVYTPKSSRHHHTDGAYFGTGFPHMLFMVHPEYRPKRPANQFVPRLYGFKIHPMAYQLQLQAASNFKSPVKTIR

Structure (SMILES)	IC50 [nM]
CC(=O)N1CC(N2CCN(c3cc(C(F)F)cc(Nc4nc(NC5CC5)c5ncc(C#N)n5n4)c3Cl)CC2)C1 [Example 266, 2-((3-(4-(1-acetyl-3-azetidinyl)-1-piperazinyl)-2-chloro-5-(difluoromethyl)phenyl)amino)-4-(cyclopropylamino)imidazo[2,1-f][1,2,4]triazine-7-carbonitrile]	2.97
COCCN(C)Cc1cc(C#N)cc(Nc2nc(NC3CC3)c3ncc(C#N)n3n2)c1Cl [Example 475, 2-[(2-chloro-5-cyano-3-{[(2-methoxyethyl)(methyl)amino]methyl}phenyl)amino]-4-(cyclopropylamino)imidazo[2,1-f][1,2,4]triazine-7-carbonitrile]	1.78
COC(=O)N[C@@H]1CCCN(c2cc(C#N)cc(Nc3nc(NC4CC4)c4ncc(C#N)n4n3)c2Cl)C1 [Example 41, methyl ((3R)-1-(2-chloro-5-cyano-3-((7-cyano-4-(cyclopropylamino)imidazo [2,1-f][1,2,4]triazin-2-yl)amino)phenyl)-3-piperidinyl)carbamate]	0.94
CCNc1nc(Nc2cc(C#N)cc(N3CC[C@H](NC(=O)OC)[C@H](F)C3)c2Cl)nn2c(C#N)cnc12 [Example 331, methyl ((3R,4S)-1-(2-chloro-5-cyano-3-((7-cyano-4-(ethylamino)imidazo[2,1-f][1,2,4]triazin-2-yl)amino)phenyl)-3-fluoro-4-piperidinyl)carbamate]	2.32
N#Cc1cc(Nc2nc(NC3CC3)c3ncc(C#N)n3n2)c(Cl)c(N2CCC3C(CCN3C[C@@H](O)CF)C2)c1 (stereo partly drawn) [Example 448, 2-((2-chloro-5-cyano-3-(1-((R)-3-fluoro-2-hydroxypropyl)hexahydro-1H-pyrrolo[3,2-c]pyridin-5(6H)-yl)phenyl)amino)-4-(cyclopropylamino)imidazo[2,1-f][1,2,4]triazine-7-carbonitrile]	0.88
N#Cc1cc(Nc2nc(NC3CC3)c3ncc(C#N)n3n2)c(Cl)c(OC[C@@H]2COCCN2)c1 [Example 439, (S)-2-((2-chloro-5-cyano-3-(morpholin-3-ylmethoxy)phenyl)amino)-4-(cyclopropylamino)imidazo[2,1-f][1,2,4]triazine-7-carbonitrile]	0.75
N#Cc1cnc2c(NC3CC3)nc(Nc3cc(C(F)F)cc(N4CCN(C5(CCO)COC5)CC4)c3Cl)nn12 [Example 270, 2-((2-chloro-5-(difluoromethyl)-3-(4-(3-(2-hydroxyethyl)-3-oxetanyl)-1-piperazinyl)phenyl)amino)-4-(cyclopropylamino)imidazo[2,1-f][1,2,4]triazine-7-carbonitrile]	0.82
CC(=O)OC(C)(C)C(=O)N1CCC(c2cc(C#N)cc(Nc3nc(NC4CC4)c4ncc(C#N)n4n3)c2Cl)CC1 [Example 228, 2-(4-(2-chloro-5-cyano-3-((7-cyano-4-(cyclopropylamino)imidazo[2,1-f][1,2,4]triazin-2-yl)amino)phenyl)-1-piperidinyl)-1,1-dimethyl-2-oxoethyl acetate]	0.51
CC(O)CN1CCC2CCN(c3cc(C#N)cc(Nc4nc(NC5CC5)c5ncc(C#N)n5n4)c3Cl)CC21 (racemic) [Example 460, (+/−)-2-((2-chloro-5-cyano-3-(1-(2-hydroxypropyl)hexahydro-1H-pyrrolo[2,3-c]pyridin-6(2H)-yl)phenyl)amino)-4-(cyclopropylamino)imidazo[2,1-f][1,2,4]triazine-7-carbonitrile]	1.62
CCNc1nc(Nc2cc(C#N)cc(N3C[C@H](NC(=O)OC)[C@H](OC)C3)c2Cl)nn2c(C#N)cnc12 [Example 334, methyl ((3S,4R)-1-(2-chloro-5-cyano-3-((7-cyano-4-(ethylamino)imidazo[2,1-f][1,2,4]triazin-2-yl)amino)phenyl)-4-methoxy-3-pyrrolidinyl)carbamate]	1.1
C[C@H](O)CN1CCC(c2cc(C#N)cc(Nc3nc(NC4CC4)c4ncc(C#N)n4n3)c2Cl)CC1 [Example 216, (S)-2-(2-chloro-5-cyano-3-(1-(2-hydroxypropyl)piperidin-4-yl)phenylamino)-4-(cyclopropylamino)imidazo[1,2-f][1,2,4]triazine-7-carbonitrile]	1.02
N#Cc1cc(Nc2nc(NC3CC3)c3ncc(C#N)n3n2)c(Cl)c(N2CCN(C3CN(S(=O)(=O)CC(F)(F)F)C3)CC2)c1 [Example 507, 2-[(2-chloro-5-cyano-3-{4-[1-(2,2,2-trifluoroethanesulfonyl)azetidin-3-yl]piperazin-1-yl}phenyl)amino]-4-(cyclopropylamino)imidazo[2,1-f][1,2,4]triazine-7-carbonitrile]	16.9
N#Cc1cc(Nc2nc(NC3CC3)c3ncc(C#N)n3n2)c(Cl)c(N2CCN(CC3(O)COC3)CC2)c1 [Example 580, 2-[(2-chloro-5-cyano-3-{4-[(3-hydroxyoxetan-3-yl)methyl]piperazin-1-yl}phenyl)amino]-4-(cyclopropylamino)imidazo [2,1-f][1,2,4]triazine-7-carbonitrile]	3.2
CCNc1nc(Nc2cc(C#N)cc(N3CC(C)[C@H](NC(=O)OC)C3)c2Cl)nn2c(C#N)cnc12 (stereo in doubt) [Example 336, methyl ((3S,4R)-1-(2-chloro-5-cyano-3-((7-cyano-4-(ethylamino)imidazo[2,1-f][1,2,4]triazin-2-yl)amino)phenyl)-4-methyl-3-pyrrolidinyl)carbamate]	0.74
COC(=O)N1CCN(Cc2cc(C#N)cc(Nc3nc(NC4CC4)c4ncc(C#N)n4n3)c2Cl)CC1 [Example 478, methyl 4-[(2-chloro-5-cyano-3-{[7-cyano-4-(cyclopropylamino)imidazo[2,1-f][1,2,4]triazin-2-yl]amino}phenyl)methyl]piperazine-1-carboxylate]	1.31
COC(=O)Nc1cc(Nc2nc(NC3CC3)c3ncc(C#N)n3n2)c(Cl)c(C2CCN(C)CC2)c1 [Example 397, Methyl-4-chloro-3-(7-cyano-4-(cyclopropylamino)imidazo[1,2-f][1,2,4]triazin-2-ylamino)-5-(1-methylpiperidin-4-yl)phenylcarbamate]	1.8
N#Cc1cc(Nc2nc(NC3CC3)c3ncc(C#N)n3n2)c(Cl)c(OC2CCN(C3COC3)C2)c1 (racemic) [Example 426, (+/−)-2-((2-chloro-5-cyano-3-((1-(oxetan-3-yl)pyrrolidin-3-yl)oxy)phenyl)amino)-4-(cyclopropylamino)imidazo[2,1-f][1,2,4]triazine-7-carbonitrile]	0.38

Results, then the compound that gave them:

IC50 [nM]	Structure (SMILES)
4.43	COC(=O)N[C@H]1CCN(c2cc(C#N)cc(Nc3nc(NC4CC4)c4ncc(C#N)n4n3)c2Cl)C[C@H]1NC(C)C [Example 756, methyl N-[(3R,4S)-1-(2-chloro-5-cyano-3-{[7-cyano-4-(cyclopropylamino)imidazo [2,1-f][1,2,4]triazin-2-yl]amino}phenyl)-3-[(propan-2-yl)amino]piperidin-4-yl]carbamate]
0.67	CN1CC2(CCN(c3cc(C#N)cc(Nc4nc(NC5CC5)c5ncc(C#N)n5n4)c3Cl)CC2)OC1=O [Example 780, 2-((2-chloro-5-cyano-3-(3-methyl-2-oxo-1-oxa-3,8-diazaspiro[4.5]decan-8-yl)phenyl)amino)-4-(cyclopropylamino)imidazo[2,1-f][1,2,4]triazine-7-carbonitrile]
1.38	Cc1nn(C)c(C)c1-c1cc(C#N)cc(Nc2nc(NC3CC3)c3ncc(C#N)n3n2)c1Cl [Example 717, 2-((2-chloro-5-cyano-3-(1,3,5-trimethyl-1H-pyrazol-4-yl)phenyl)amino)-4-(cyclopropylamino)imidazo[2,1-f][1,2,4]triazine-7-carbonitrile]
17.3	CCNc1nc(Nc2cc(C#N)cc(N[C@@H]3CCN(C(=O)OC)C[C@H]3O)c2Cl)nn2c(C#N)cnc12 [Example 846, (3R,4R)-methyl 4-((2-chloro-5-cyano-3-((7-cyano-4-(ethylamino)imidazo[2,1-f][1,2,4]triazin-2-yl)amino)phenyl)amino)-3-hydroxypiperidine-1-carboxylate]
0.52	N#Cc1cc(CN2CCNCC(O)C2)c(Cl)c(Nc2nc(NC3CC3)c3ncc(C#N)n3n2)c1 (stereo not drawn) [Example 669, 2-((2-chloro-5-cyano-3-((6-hydroxy-1,4-diazepan-1-yl)methyl)phenyl)amino)-4-(cyclopropylamino)imidazo[2,1-f][1,2,4]triazine-7-carbonitrile]
18.7	CCNc1nc(Nc2cc(C#N)cc(N3CC[C@@H](NC(=O)OC)[C@H](OC(=O)C[C@H](N)C(=O)OC(C)(C)C)C3)c2Cl)nn2c(C#N)cnc12 [Example 815, (S)-1-tert-butyl 4-((3R,4R)-1-(2-chloro-5-cyano-3-((7-cyano-4-(ethylamino)imidazo[2,1-f][1,2,4]triazin-2-yl)amino)phenyl)-4-((methoxycarbonyl)amino)piperidin-3-yl) 2-aminosuccinate hydrochloride]
0.77	CC(=O)N1CCC(C(F)c2cc(C#N)cc(Nc3nc(NC4CC4)c4ncc(C#N)n4n3)c2Cl)CC1 (stereo not drawn) [Example 663, 2-((3-((1-acetylpiperidin-4-yl)fluoromethyl)-2-chloro-5-cyanophenyl)amino)-4-(cyclopropylamino)imidazo[2,1-f][1,2,4]triazine-7-carbonitrile]
1.24	COC(=O)N[C@H]1CCN(c2cc(C#N)cc(Nc3nc(NC4CC4)c4ncc(C#N)n4n3)c2Cl)C[C@H]1NC1COC1 (single isomer, unassigned) [Example 745]
4.34	COC[C@@H](O)CN1CCN(c2cc(C#N)cc(Nc3nc(NC4CC4)c4ncc(C#N)n4n3)c2Cl)CC1 [Example 602, 2-[(2-chloro-5-cyano-3-{4-[(2S)-2-hydroxy-3-methoxypropyl]piperazin-1-yl}phenyl)amino]-4-(cyclopropylamino)imidazo [2,1-f][1,2,4]triazine-7-carbonitrile]
1	CC(=O)N1CCN(CC(O)c2cc(C#N)cc(Nc3nc(NC4CC4)c4ncc(C#N)n4n3)c2Cl)CC1 (stereo not drawn) [Example 689, 2-((3-(2-(4-acetylpiperazin-1-yl)-1-hydroxyethyl)-2-chloro-5-cyanophenyl)amino)-4-(cyclopropylamino)imidazo[2,1-f][1,2,4]triazine-7-carbonitrile]
